According to ChEMBL document CHEMBL4513161, “CO-ADD screening of MMV (CH) - Pandemic Response Box” (2021):
≈ marks a conversion by molar mass, not a printed value. Structures can show the parent of a compound that is named as a salt.

Experiments:
HEK293 = assay: cells; type: functional, Homo sapiens, ATCC CRL1573; details: ASSAY_TEST Inhibition of Cell Viability, detection method Resazurin, Fluorescence (ex560/em590), MEDIA DMEM with 10% FBS, plate type 384well, TC, CORNING #3712, time 18 hr, read-out: CC50
Pseudomonas aeruginosa [1] = assay: Antibacterial activity against Pseudomonas aeruginosa PAO397 [PAO1 d(mexAB-oprM) d(mexCD-oprJ) d(mexEF-oprN) d(mexJKL) d(mexXY) d(opmH)] (CO-ADD:GN_211); MIC in CAMBH media using NBS plates, by OD(600); type: functional; details: ASSAY_TEST Inhibition of Bacterial Growth, detection method Absorption (OD600), MEDIA CAMHB, plate type 384well, CORNING #3640, time 18 hr
Staphylococcus aureus = assay: microbe, parasite or virus in culture; details: ATCC 43300, 18 h, ASSAY_TEST Inhibition of Bacterial Growth, detection method Absorption (OD600), MEDIA CAMHB, plate type 384well, NBS, CORNING #3640
Escherichia coli = assay: microbe, parasite or virus in culture; details: ATCC 25922, 18 h, ASSAY_TEST Inhibition of Bacterial Growth, detection method Absorption (OD600), MEDIA CAMHB, plate type 384well, NBS, CORNING #3640
Klebsiella pneumoniae = assay: microbe, parasite or virus in culture; details: ATCC 700603, 18 h, ASSAY_TEST Inhibition of Bacterial Growth, detection method Absorption (OD600), MEDIA CAMHB, plate type 384well, NBS, CORNING #3640
Pseudomonas aeruginosa [2] = assay: microbe, parasite or virus in culture; details: ATCC 27853, 18 h, ASSAY_TEST Inhibition of Bacterial Growth, detection method Absorption (OD600), MEDIA CAMHB, plate type 384well, NBS, CORNING #3640
Acinetobacter baumannii = assay: microbe, parasite or virus in culture; details: ATCC 19606, 18 h, ASSAY_TEST Inhibition of Bacterial Growth, detection method Absorption (OD600), MEDIA CAMHB, plate type 384well, NBS, CORNING #3640
Candida albicans = assay: microbe, parasite or virus in culture; details: ATCC 90028, ASSAY_TEST Inhibition of Fungal Growth, detection method Absorption (OD530), plate type 384well, NBS, CORNING #3640
[3] = Homo sapiens, ATCC CRL1573, HEK293

SMILES | MIC (Pseudomonas aeruginosa [1]) [µM] | MIC (Cryptococcus neoformans) [µM] | MIC (Staphylococcus aureus) [µM] | MIC (Escherichia coli) [µM] | MIC (Klebsiella pneumoniae) [µM] | MIC (Pseudomonas aeruginosa [2]) [µM] | MIC (Acinetobacter baumannii) [µM] | MIC (Candida albicans) [µM] | CC50 (HEK293; [3]) [µM] | CC50 (HEK293) [µM]
O=C(NCc1ccc2c3c(cccc13)C(=O)N2)c1cccs1 | > 20 | > 20 | > 20 | > 20 | > 20 | > 20 | > 20 | > 20 | > 20 | 
OB1OCc2cc(Cl)ccc21 [AN-2718] | > 20 | > 20 | > 20 | > 20 | > 20 | > 20 | > 20 | 5 (≈ 0.842 µg/mL) | > 20 | 
COc1c(F)c(F)cc2c(=O)c(C(=O)O)cn(C3CC3)c12 | 5 (≈ 1.48 µg/mL) | > 20 | 20 (≈ 5.9 µg/mL) | 2.5 (≈ 0.738 µg/mL) | > 20 | 10 (≈ 2.95 µg/mL) | > 20 | > 20 | > 20 | 
CCc1ccccc1OCCN1CCCCCC1 | > 20 | > 20 | > 20 | > 20 | > 20 | > 20 | > 20 | > 20 | > 20 | 
NC(=O)c1cnccn1 [PYRAZINAMIDE] | > 20 | > 20 | > 20 | > 20 | > 20 | > 20 | > 20 | > 20 | > 20 | 
Cc1cc(Nc2ccc(F)cc2)nc(SCc2nc3ccccc3[nH]2)n1 | > 20 | > 20 | > 20 | > 20 | > 20 | > 20 | > 20 | > 20 | > 20 | 
COc1cc(C)c2c(Oc3cccc(C(F)(F)F)c3)c(OC)cc(NC(C)CCCN)c2n1 (stereo not drawn) [TAFENOQUINE SUCCINATE] | > 20 | > 20 | 10 | > 20 | > 20 | > 20 | > 20 | > 20 | 6.36 | 
CCCCC(CC)CNC(=N)NC(=N)NCCCCCCNC(=N)NC(=N)NCC(CC)CCCC (stereo not drawn) [ALEXIDINE DIHYDROCHLORIDE] | 5 | ≤ 0.156 | ≤ 0.156 | 1.25 | 5 | 5 | 10 | 0.625 | 2.61 | 
Cc1ccc(C)c(OCCCCCCN2C[C@H](O)[C@@H](O)[C@H](O)[C@H]2CO)c1 | > 20 | > 20 | > 20 | > 20 | > 20 | > 20 | > 20 | > 20 | > 20 | 
CN(C(=O)C1(c2ccc(Cl)cc2)CCC1)c1ccccc1 | > 20 | > 20 | > 20 | > 20 | > 20 | > 20 | > 20 | > 20 | > 20 | 
COc1ccc(NC(=O)CC2Sc3ncnn3C2=O)cc1 (stereo not drawn) | > 20 | 20 (≈ 6.09 µg/mL) | > 20 | > 20 | > 20 | > 20 | > 20 | > 20 | 19.5 | 
CC(C)CCN1C(=O)C(C2=NS(=O)(=O)c3cc(NS(C)(=O)=O)ccc3N2)=C(O)[C@@H]2[C@H]3CC[C@H](C3)[C@@H]21 | > 20 | > 20 | > 20 | > 20 | > 20 | > 20 | > 20 | > 20 | > 20 | 
Clc1ccc(COC(Cn2ccnc2)c2ccc(Cl)cc2Cl)c(Cl)c1 (stereo not drawn) | > 20 | 0.625 (≈ 0.26 µg/mL) |  |  |  |  |  |  |  | > 20
CC1(C)[C@H](C(=O)O)N2C(=O)C[C@H]2S1(=O)=O [SULBACTAM] | > 20 | > 20 | > 20 | > 20 |  | 2.5 (≈ 0.583 µg/mL) | > 20 | > 20 | > 20 | 
N=c1n(CCN2CCCCC2)c2ccccc2n1CC(O)COc1ccc(Cl)cc1Cl (stereo not drawn) |  | > 20 | > 20 | > 20 | > 20 |  | > 20 | > 20 | 6.89 | 
CCN(CC)CCn1c(=N)n(CC(O)COc2ccc(Cl)cc2Cl)c2ccccc21 (stereo not drawn) |  | > 20 | > 20 | > 20 | > 20 | 20 (≈ 9.03 µg/mL) | > 20 | > 20 | 4.49 | 

Now from value to compound, other results behind:

MIC (Pseudomonas aeruginosa [1]) [µM] | MIC (Cryptococcus neoformans) [µM] | MIC (Staphylococcus aureus) [µM] | MIC (Escherichia coli) [µM] | MIC (Klebsiella pneumoniae) [µM] | MIC (Pseudomonas aeruginosa [2]) [µM] | MIC (Acinetobacter baumannii) [µM] | MIC (Candida albicans) [µM] | SMILES | CC50 (HEK293; [3]) [µM] | CC50 (HEK293) [µM]
> 20 | > 20 | > 20 | > 20 | > 20 | > 20 | > 20 | > 20 | NC(=O)c1[nH]c2ccc(S(N)(=O)=O)cc2c1-c1ccccc1 | > 20 | 
> 20 | 20 (≈ 3.73 µg/mL) | > 20 | > 20 | > 20 | > 20 | > 20 | 10 (≈ 1.86 µg/mL) | OB1OCc2c1ccc(Cl)c2F | > 20 | 
> 20 | 20 | > 20 | > 20 | > 20 | > 20 | > 20 | > 20 | CN(C/C=C/C#CC(C)(C)C)Cc1cccc2ccccc12 [TERBINAFINE HYDROCHLORIDE] | > 20 | 
> 20 | > 20 | > 20 | > 20 | > 20 | > 20 | > 20 | > 20 | O=C(Nc1ccccc1C(=O)O)c1cccc(Oc2ccccc2)c1 | > 20 | 
> 20 | > 20 | > 20 | > 20 | > 20 | > 20 | > 20 | > 20 | CCc1cc(CCCOc2c(C)cc(-c3noc(C(F)(F)F)n3)cc2C)on1 | > 20 | 
> 20 | > 20 | > 20 | > 20 | > 20 | > 20 | > 20 | 2.5 (≈ 0.794 µg/mL) | CCC(C)(C)c1ccc(CC(C)CN2C[C@@H](C)O[C@@H](C)C2)cc1 (stereo partly drawn) | > 20 | 
> 20 | > 20 | > 20 | > 20 | > 20 | > 20 | > 20 | > 20 | Cc1ncc([N+](=O)[O-])n1CC(O)CN1CCOCC1 (stereo not drawn) [MORINIDAZOLE] | > 20 | 
> 20 | > 20 | > 20 | > 20 | > 20 | > 20 | > 20 | > 20 | Clc1ccc(Cn2c(CN3CCCC3)nc3ccccc32)cc1 [CLEMIZOLE] | > 20 | 
> 20 | 20 (≈ 7.55 µg/mL) | 20 (≈ 7.55 µg/mL) | > 20 | > 20 | > 20 | > 20 | 10 (≈ 3.78 µg/mL) | O=C(/C(=C/c1ccc(Cl)cc1Cl)n1ccnc1)c1ccc(Cl)cc1 | 5.19 | 
> 20 | > 20 | > 20 | > 20 | > 20 | > 20 | > 20 | > 20 | Cc1c(F)cccc1NC(=O)Nc1ccc(Cl)c(S(=O)(=O)[C@H]2CCCNC2)c1O | 12 | 
> 20 | > 20 | > 20 | > 20 | > 20 | > 20 | > 20 | > 20 | O=S(=O)(Nc1ccccc1)c1ccc(NC(=S)Nc2ccccc2)cc1 | > 20 | 
> 20 | > 20 | > 20 | > 20 | > 20 | > 20 | > 20 | > 20 | CC(C)c1ccc(COc2cccc(-c3cc([S+](C)[O-])c(C#N)c(=O)[nH]3)c2)cc1 (stereo not drawn) | > 20 | 
> 20 | > 20 | > 20 | > 20 | > 20 | > 20 | > 20 | > 20 | O=C(c1ccc(F)cc1)N1CCN2C(=O)c3ccccc3C12c1ccccc1 (stereo not drawn) | > 20 | 
 | > 20 |  |  |  |  |  |  | CC(Oc1ccc(Cl)cc1Cl)C(=O)NCc1ccc2c(c1)OCO2 (stereo not drawn) | > 20 | 
